Results reported in patent US8466089B2, “Pyrazole compounds, process for their production and herbicides containing them” (Ishihara Sangyo Kaisha, Ltd., priority 2008, dated 2013).

Key:
Type in all cases: in vivo
[1] = tested on: barnyardgrass (Echinochloa crus-galli L.); experiment: Test Example 1, foliar treatment in upland pots; conditions: 20th to 22nd day after application, visual, read-out: Growth inhibition rate (%) Barnyardgrass
Excerpt: (§1) Upland field soil was put into a 1/170,000 hectare pot, and seeds of various plants were sown. When the respective plants reached predetermined leaf stage ((1) barnyardgrass (Echinochloa crus-galli L.): 1.2 to 3.0 leaf stage, (2) crabgrass (Digitaria sanguinalis L.): 1.0 to 3.0 leaf stage, (3) green foxtail (Setaria viridis L.): 1.5 to 3.0 leaf stage, (4) redroot pigweed (Amaranthus retroflexus L.): cotyledon stage to 1.5 leaf stage, (5) prickly sida (Sida spinosa L.): cotyledon stage to 2.0 leaf stage, (6) velvetleaf (Abutilon theophrasti MEDIC.): cotyledon stage to 1.3 leaf stage, (7) rice (Oryza sativa L.): 1.2 to 2.5 leaf stage, (8) corn (Zea mays L.): 2.0 to 3.3 leaf stage, (9) soybean (Glycine max Merr.): primary leaf stage to 0.3 leaf stage) and wheat (Triticum spp.): 2.0 to 3.0 leaf stage, wettable powders or emulsifiable concentrates of the compounds of the present invention prepared in accordance with a conventional preparation method, were weighed so that the active ingredients became the prescribed amounts, and diluted with water in an amount corresponding to 500 liter per 1 hectare (containing 0.1 vol % of an agricultural spreader (“KUSARINOH”, manufactured by NIHON NOHYAKU CO., LTD.)). The spray solutions thus prepared were applied for foliar treatment by a small sprayer.
(§2) On the 20th to 22nd day after application, the state of growth of the respective plants was visually observed, and the herbicidal effect was evaluated by a growth inhibition rate (%) of 0 (equivalent to the non-treated area) to 100% (complete kill).

corn (Zea mays L.) [2] = experiment: Test Example 1, foliar treatment in upland pots; conditions: 20th to 22nd day after application, visual, read-out: Growth inhibition rate (%) Corn
Excerpt: as §1, §2

[3] = tested on: crabgrass (Digitaria sanguinalis L.); experiment: Test Example 1, foliar treatment in upland pots; conditions: 20th to 22nd day after application, visual, read-out: Growth inhibition rate (%) Crabgrass
Excerpt: as §1, §2

[4] = tested on: green foxtail (Setaria viridis L.); experiment: Test Example 1, foliar treatment in upland pots; conditions: 20th to 22nd day after application, visual, read-out: Growth inhibition rate (%) Green foxtail
Excerpt: as §1, §2

[5] = tested on: redroot pigweed (Amaranthus retroflexus L.); experiment: Test Example 1, foliar treatment in upland pots; conditions: 20th to 22nd day after application, visual, read-out: Growth inhibition rate (%) Redroot pigweed
Excerpt: as §1, §2

rice (Oryza sativa L.) [6] = experiment: Test Example 1, foliar treatment in upland pots; conditions: 20th to 22nd day after application, visual, read-out: Growth inhibition rate (%) Rice
Excerpt: as §1, §2

[7] = tested on: velvetleaf (Abutilon theophrasti MEDIC.); experiment: Test Example 1, foliar treatment in upland pots; conditions: 20th to 22nd day after application, visual, read-out: Growth inhibition rate (%) Velvetleaf
Excerpt: as §1, §2

[8] = tested on: barnyardgrass (Echinochloa crus-galli L.); experiment: Test Example 2, soil application on the day after sowing; conditions: 21st to 22nd day after application, visual, read-out: Growth inhibition rate (%) Barnyardgrass
Excerpt: (§3) Upland field soil was put into a 1/170,000 hectare pot, and seeds of various plants (barnyardgrass (Echinochloa crus-galli L.), crabgrass (Digitaria sanquinalis L.), green foxtail (Setaria viridis L.), redroot pigweed (Amaranthus retroflexus L.), prickly sida (Sida spinosa L.), velvetleaf (Abutilon theophrasti MEDIC.), rice (Oryza sativa L.), corn (Zea mays L.), soybean (Glycine max Merr.)) and wheat (Triticum spp.) were sown. On the day after sowing, wettable powders or emulsifiable concentrates of the compounds of the present invention prepared in accordance with a conventional preparation method, were weighed so that the active ingredients became the prescribed amounts, and diluted with water in an amount corresponding to 500 liter per 1 hectare, followed by soil application with a small sprayer.
(§4) On the 21st to 22nd day after the application, the state of growth of the respective plants was visually observed, and the herbicidal effect was evaluated by a growth inhibition rate (%) of from 0 (equivalent to the non-treated area) to 100% (complete kill).

corn (Zea mays L.) [9] = experiment: as above; conditions: 21st to 22nd day after application, visual, read-out: Growth inhibition rate (%) Corn
Excerpt: as §3, §4

[10] = tested on: crabgrass (Digitaria sanquinalis L.); experiment: as above; conditions: 21st to 22nd day after application, visual, read-out: Growth inhibition rate (%) Crabgrass
Excerpt: as §3, §4

[11] = tested on: green foxtail (Setaria viridis L.); experiment: as above; conditions: 21st to 22nd day after application, visual, read-out: Growth inhibition rate (%) Green foxtail
Excerpt: as §3, §4

[12] = tested on: prickly sida (Sida spinosa L.); experiment: as above; conditions: 21st to 22nd day after application, visual, read-out: Growth inhibition rate (%) Prickly sida
Excerpt: as §3, §4

[13] = tested on: redroot pigweed (Amaranthus retroflexus L.); experiment: as above; conditions: 21st to 22nd day after application, visual, read-out: Growth inhibition rate (%) Redroot pigweed
Excerpt: as §3, §4

rice (Oryza sativa L.) [14] = experiment: as above; conditions: 21st to 22nd day after application, visual, read-out: Growth inhibition rate (%) Rice
Excerpt: as §3, §4

[15] = tested on: soybean (Glycine max Merr.); experiment: as above; conditions: 21st to 22nd day after application, visual, read-out: Growth inhibition rate (%) Soybean
Excerpt: as §3, §4

[16] = tested on: velvetleaf (Abutilon theophrasti MEDIC.); experiment: as above; conditions: 21st to 22nd day after application, visual, read-out: Growth inhibition rate (%) Velvetleaf
Excerpt: as §3, §4

wheat (Triticum spp.) = experiment: as above; conditions: 21st to 22nd day after application, visual, read-out: Growth inhibition rate (%) Wheat
Excerpt: as §3, §4

Row | SMILES | inhibition at 7 g/ha [1] [%] | inhibition at 7 g/ha (corn (Zea mays L.) [2]) [%] | inhibition at 7 g/ha [3] [%] | inhibition at 7 g/ha [4] [%] | inhibition at 7 g/ha [5] [%] | inhibition at 7 g/ha (rice (Oryza sativa L.) [6]) [%] | inhibition at 7 g/ha [7] [%] | inhibition at 250 g/ha [8] [%] | inhibition at 250 g/ha (corn (Zea mays L.) [9]) [%] | inhibition at 250 g/ha [10] [%] | inhibition at 250 g/ha [11] [%] | inhibition at 250 g/ha [12] [%] | inhibition at 250 g/ha [13] [%] | inhibition at 250 g/ha (rice (Oryza sativa L.) [14]) [%] | inhibition at 250 g/ha [15] [%] | inhibition at 250 g/ha [16] [%] | inhibition at 250 g/ha (wheat (Triticum spp.)) [%]
1 | COCCOc1c(S(C)(=O)=O)ccc(C(=O)c2cnn(C(C)C)c2O)c1C [Compound No. 8-1, (5-Hydroxy-1-isopropyl-1H-pyrazol-4-yl)(3-(2-methoxyethoxy)-2-methyl-4-(methylsulfonyl)phenyl)ketone] | 60 | 0 | 95 | 90 | 90 | 10 | 80 | 100 | 0 | 100 | 100 | 40 | 100 | 80 | 0 | 100 | 0
2 | CCc1nn(C)c(O)c1C(=O)c1ccc(S(C)(=O)=O)c(OCCOC)c1C [Compound No. 5-3, (5-Hydroxy-1-methyl-3-ethyl-1H-pyrazol-4-yl)(3-(2-methoxyethoxy)-2-methyl-4-(methylsulfonyl)phenyl)ketone] | 90 | 0 | 90 | 90 | 95 | 50 | 80 | 50 | 20 | 95 | 60 | 20 | 100 | 20 | 0 | 30 | 0
3 | CCCn1ncc(C(=O)c2ccc(S(C)(=O)=O)c(OCCOC)c2C)c1OC(C)OC(=O)OCC (centres unmarked) [Compound No. 3-1, Ethyl 1-(1-n-propyl-4-(3-(2-methoxyethoxy)-2-methyl-4-(methylsulfonyl)benzoyl)-1H-pyrazol-5-yloxy)ethyl carbonate] | 70 | 0 | 70 | 30 | 80 | 0 | 60 | 60 | 0 | 80 | 60 | 80 | 40 | 20 | 0 | 80 | 10
4 | COC(=O)OC(C)Oc1c(C(=O)c2ccc(S(C)(=O)=O)c(C(=O)OC)c2C)cnn1C (centres unmarked) [Compound No. 1-2, Methyl 3-(5-(1-(methoxycarbonyloxy)ethoxy)-1-methyl-1H-pyrazole-4-carbonyl)-2-methyl-6-(methylsulfonyl)benzoate] | 100 | 0 | 90 | 100 | 95 | 70 | 80 | 100 | 0 | 100 | 100 | 98 | 100 | 100 | 70 | 100 | 20
5 | CCn1nc(C)c(C(=O)c2ccc(S(C)(=O)=O)c(OCCOC)c2C)c1O [Compound No. 6-1, (1-Ethyl-5-hydroxy-3-methyl-1H-pyrazol-4-yl)(3-(2-methoxyethoxy)-2-methyl-4-(methylsulfonyl)phenyl)ketone] | 10 | 0 | 50 | 60 | 60 | 20 | 50 | 100 | 0 | 100 | 98 | 80 | 100 | 100 | 60 | 80 | 20
6 | CCOC(=O)OC(C)Oc1c(C(=O)c2ccc(S(C)(=O)=O)c(OCCOC(C)C)c2C)cnn1C (centres unmarked) [Compound No. 1-5, Ethyl 1-(4-(3-(2-isopropoxyethoxy)-2-methyl-4-(methylsulfonyl)benzoyl)-1-methyl-1H-pyrazol-5-yloxy)ethyl carbonate] | 95 | 10 | 90 | 80 | 80 | 20 | 80 | 100 | 10 | 95 | 100 | 90 | 100 | 80 | 10 | 100 | 0
7 | Cc1c(C(=O)c2cnn(C)c2O)ccc(S(C)(=O)=O)c1OCCC(C)C [Compound No. 5-1, (5-Hydroxy-1-methyl-1H-pyrazol-4-yl)(3-(2-isopropylethoxy)-2-methyl-4-(methylsulfonyl)phenyl)ketone] | 30 | 0 | 50 | 50 | 60 | 0 | 10 | 98 | 10 | 98 | 95 | 98 | 100 | 98 | 0 | 100 | 20
